This passage reports IC50 results from patent US9556150B2, “Inhibitors of bruton's tyrosine kinase” (Hoffmann-La Roche Inc., priority 2013, dated 2017).

The target of the test is Bruton's Tyrosine Kinase (BTK), inactivated state (Homo sapiens (Human), UniProt Q06187). The experiment in a line: Bruton's Tyrosine Kinase (BTK) Inhibition TR-FRET (Time Resolved FRET) competition assay. It counts as binding. The settings on record: TR-FRET competition with Kinase Tracer 178, BTK-Eu complex, 18-24 h at 14° C. How it is done:
Bruton's Tyrosine Kinase (BTK) Inhibition TR-FRET (Time Resolved FRET) Assay
This BTK competition assay measures compound potency (IC50) for the inactivated state of Bruton's Tyrosine Kinase using FRET (Förster/Fluorescence Resonance Energy Transfer) technology. The BTK-Eu complex was incubated on ice one hour prior to use at a starting concentration of 50 nM BTK-Bioease™: 10 nM Eu-streptavidin (Perkin-Elmer Catalog#AD0062). The assay buffer consisted of 20 mM HEPES (pH 7.15), 0.1 mM DTT, 10 mM MgCl2, 0.5 mg/ml BSA with 3% Kinase Stabilizer (Fremont Biosolutions, Catalog #STB-K02). After 1 h, the reaction mixture from above was diluted 10 fold in assay buffer to make 5 nM BTK: 1 nM Eu-Streptavidin complex (donor fluorophore). 18 μl of a mixture of 0.11 nM BTK-Eu and 0.11 nM Kinase Tracer 178 (Invitrogen, Catalog #PV5593,) with BTK-Eu alone as no negative control, was then dispensed into 384-well flat bottom plates (Greiner, 784076). Compounds to be tested in assay were prepared as 10× concentrations and serial dilution in half-log increments was performed in DMSO so as to generate 10 point curves. To initiate the FRET reaction, compounds prepared as 10× stock in DMSO was added to the plates and the plates were incubated 18-24 h at 14° C.
After the incubation the plates were read on a BMG Pherastar Fluorescent plate reader (or equivalent) and used to measure the emission energy from the europium donor fluorophore (620 nm emission) and the FRET (665 nm emission). The negative control well values were averaged to obtain the mean minimum. The positive “no inhibitor” control wells were averaged to obtain the mean maximum. Percent of maximal FRET was calculated using following equation: % max FRET=100×[(FSR cmpd−FSR mean min)/(FSR mean max−FSR mean min)]
where FSR=FRET Signal ratio. % Max FRET curves were plotted in Activity Base (Excel) and the IC50(%), hill slope, z′ and % CV were determined. The mean IC50 and standard deviation will be derived from duplicate curves (singlet inhibition curves from two independent dilutions) using Microsoft Excel.
Representative compound data for this assay are listed below in Table II.
For orientation: Time-resolved FRET reads energy transfer from a long-lived donor to a nearby acceptor.

Bruton's Tyrosine Kinase (BTK), inactivated state, sequence (Q06187 whole entry): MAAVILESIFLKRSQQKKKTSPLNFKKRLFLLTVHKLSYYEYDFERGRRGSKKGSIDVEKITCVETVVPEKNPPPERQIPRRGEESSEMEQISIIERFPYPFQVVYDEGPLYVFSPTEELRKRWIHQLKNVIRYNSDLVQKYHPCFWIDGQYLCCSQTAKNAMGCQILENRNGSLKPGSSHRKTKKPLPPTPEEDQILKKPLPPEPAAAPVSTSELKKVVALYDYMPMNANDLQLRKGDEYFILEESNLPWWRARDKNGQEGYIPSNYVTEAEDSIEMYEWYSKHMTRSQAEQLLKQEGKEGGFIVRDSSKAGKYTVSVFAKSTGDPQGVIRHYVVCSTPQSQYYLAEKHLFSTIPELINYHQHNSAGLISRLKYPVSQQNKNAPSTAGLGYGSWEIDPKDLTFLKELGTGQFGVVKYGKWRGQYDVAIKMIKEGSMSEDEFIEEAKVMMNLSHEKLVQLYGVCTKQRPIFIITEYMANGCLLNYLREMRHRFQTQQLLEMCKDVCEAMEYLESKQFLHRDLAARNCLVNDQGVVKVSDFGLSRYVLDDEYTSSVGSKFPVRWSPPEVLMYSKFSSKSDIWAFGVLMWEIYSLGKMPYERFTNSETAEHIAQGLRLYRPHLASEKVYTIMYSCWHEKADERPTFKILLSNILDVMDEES

A word on the IC50: it is the midpoint of a concentration-inhibition curve. The low end stands for greater potency, the high end for weaker potency. Turning to `Nc1c(C(=O)c2cc3cc(C(=O)N4CCOCC4)ccc3[nH]2)cnn1-c1ccc(Oc2ccccc2)cc1` [Example I-1, [5-Amino-1-(4-phenoxy-phenyl)-1H-pyrazol-4-yl]-[5-(morpholine-4-carbonyl)-1H-indol-2-yl]-methanone], the half-maximal inhibitory concentration (IC50) amounted to 6.8 nM.
Under `Cc1cc(Oc2ccccc2F)ccc1-n1ncc(C(=O)c2cc3cc(C(=O)N4CCOCC4)ccc3[nH]2)c1N` [Example I-2, {5-Amino-1-[4-(2-fluoro-phenoxy)-2-methyl-phenyl]-1H-pyrazol-4-yl}-[5-(morpholine-4-carbonyl)-1H-indol-2-yl]-methanone] stands 4.6 nM; under `Cc1cc(Oc2ccccc2)ncc1-n1ncc(C(=O)c2cc3cc(C(=O)N4CCOCC4)ccc3[nH]2)c1N` [Example I-3, [5-Amino-1-(4-methyl-6-phenoxy-pyridin-3-yl)-1H-pyrazol-4-yl]-[5-(morpholine-4-carbonyl)-1H-indol-2-yl]-methanone], 25 nM.
Under `Nc1c(C(=O)c2cc3cc(C(=O)N4CCOCC4)ccc3[nH]2)cnn1-c1ccc(Oc2ccccc2)c(F)c1` [Example I-4, [5-Amino-1-(3-fluoro-4-phenoxy-phenyl)-1H-pyrazol-4-yl]-[5-(morpholine-4-carbonyl)-1H-indol-2-yl]-methanone] stands 12 nM; under `Cc1cc(Oc2cccc(F)c2F)ccc1-n1ncc(C(=O)c2cc3cc(C(=O)N4CCOCC4)ccc3[nH]2)c1N` [Example I-5], 2.3 nM; under `Cc1cc(Oc2ccccc2)c(F)cc1-n1ncc(C(=O)c2cc3cc(C(=O)N4CCOCC4)ccc3[nH]2)c1N` [Example I-6, {2-[5-Amino-1-(5-fluoro-2-methyl-4-phenoxy-phenyl)-1H-pyrazole-4-carbonyl]-1H-indol-5-yl}-morpholin-4-yl-methanone], 43 nM.
Under `Cc1cc(Oc2ccccc2)ccc1-n1ncc(C(=O)c2cc3cc(C(=O)N4CCOCC4)ccc3[nH]2)c1N` [Example I-7, {2-[5-Amino-1-(2-methyl-4-phenoxy-phenyl)-1H-pyrazole-4-carbonyl]-1H-indol-5-yl}-morpholin-4-yl-methanone] stands 2.6 nM; under `Nc1c(C(=O)c2cc3cc(C(=O)N4CCOCC4)ccc3[nH]2)cnn1-c1ccc(Oc2ccccc2)cc1F` [Example I-8, [5-Amino-1-(2-fluoro-4-phenoxy-phenyl)-1H-pyrazol-4-yl]-[5-(morpholine-4-carbonyl)-1H-indol-2-yl]-methanone], 14.4 nM.
The molecule `Nc1c(C(=O)c2cc3cc(C(=O)N4CCOCC4)ccc3[nH]2)cnn1-c1ccc(Oc2ccccc2F)nc1` [Example I-9, {5-Amino-1-[6-(2-fluoro-phenoxy)-pyridin-3-yl]-1H-pyrazol-4-yl}-[5-(morpholine-4-carbonyl)-1H-indol-2-yl]-methanone] gave an IC50 of 220 nM.
`Nc1c(C(=O)c2cc3cc(C(=O)N4CCOCC4)ccc3[nH]2)cnn1-c1ccc(Oc2cccc(F)c2F)nc1` [Example I-10, {5-Amino-1-[6-(2,3-difluoro-phenoxy)-pyridin-3-yl]-1H-pyrazol-4-yl}-[5-(morpholine-4-carbonyl)-1H-indol-2-yl]-methanone] gave a concentration for half-maximal inhibition (IC50) of 180 nM.
As for `Cc1cc(Oc2ccccn2)ccc1-n1ncc(C(=O)c2cc3cc(C(=O)N4CCOCC4)ccc3[nH]2)c1N` [Example I-11, {5-Amino-1-[2-methyl-4-(pyridin-2-yloxy)-phenyl]-1H-pyrazol-4-yl}-[5-(morpholine-4-carbonyl)-1H-indol-2-yl]-methanone], the IC50 turned out to be 200 nM.
The same measure for `Nc1c(C(=O)c2cc3cc(C(=O)N4CCOCC4)ccc3[nH]2)cnn1-c1ccc(Oc2cccc(F)c2F)cc1` [Example I-12, {5-Amino-1-[4-(2,3-difluoro-phenoxy)-phenyl]-1H-pyrazol-4-yl}-[5-(morpholine-4-carbonyl)-1H-indol-2-yl]-methanone]: 13 nM.
The same measure for `Nc1c(C(=O)c2cc3cc(C(=O)N4CCOCC4)ccc3[nH]2)cnn1-c1ccc(Oc2cc(F)ccc2F)nc1` [Example I-13, {5-Amino-1-[6-(2,5-difluoro-phenoxy)-pyridin-3-yl]-1H-pyrazol-4-yl}-[5-(morpholine-4-carbonyl)-1H-indol-2-yl]-methanone]: 530 nM.
The same measure for `Nc1c(C(=O)c2cc3cc(C(=O)N4CCOCC4)ccc3[nH]2)cnn1-c1ccc(Oc2ccccc2)cc1Cl` [Example I-14, [5-Amino-1-(2-chloro-4-phenoxy-phenyl)-1H-pyrazol-4-yl]-[5-(morpholine-4-carbonyl)-1H-indol-2-yl]-methanone]: 0.46 nM; for `Nc1c(C(=O)c2cc3cc(C(=O)N4CCOCC4)ccc3[nH]2)cnn1-c1ccc(Oc2ccccc2F)cc1Cl` [Example I-15, {5-Amino-1-[2-chloro-4-(2-fluoro-phenoxy)-phenyl]-1H-pyrazol-4-yl}-[5-(morpholine-4-carbonyl)-1H-indol-2-yl]-methanone]: 0.82 nM.
`Cc1cc(Oc2cccc(Cl)c2)ccc1-n1ncc(C(=O)c2cc3cc(C(=O)N4CCOCC4)ccc3[nH]2)c1N` [Example I-16, (2-{5-Amino-1-[4-(3-chloro-phenoxy)-2-methyl-phenyl]-1H-pyrazole-4-carbonyl}-1H-indol-5-yl)-morpholin-4-yl-methanone] gave an IC50 of 3.6 nM.
Under `Cc1cc(Oc2cccc(Br)c2)ccc1-n1ncc(C(=O)c2cc3cc(C(=O)N4CCOCC4)ccc3[nH]2)c1N` [Example I-17, (2-{5-Amino-1-[4-(3-bromo-phenoxy)-2-methyl-phenyl]-1H-pyrazole-4-carbonyl}-1H-indol-5-yl)-morpholin-4-yl-methanone] stands 3.5 nM.
The same measure for `Cc1cc(Oc2cccc(C#N)c2)ccc1-n1ncc(C(=O)c2cc3cc(C(=O)N4CCOCC4)ccc3[nH]2)c1N` [Example I-18, 3-(4-{5-Amino-4-[5-(morpholine-4-carbonyl)-1H-indole-2-carbonyl]-pyrazol-1-yl}-3-methyl-phenoxy)-benzonitrile]: 5.2 nM; for `Cc1cc(Oc2cccc(C(C)(C)C)c2)ccc1-n1ncc(C(=O)c2cc3cc(C(=O)N4CCOCC4)ccc3[nH]2)c1N` [Example I-19, {5-Amino-1-[4-(3-tert-butyl-phenoxy)-2-methyl-phenyl]-1H-pyrazol-4-yl}-[5-(morpholine-4-carbonyl)-1H-indol-2-yl]-methanone]: 6.8 nM.
The same measure for `COc1ccc(-n2ncc(C(=O)c3cc4cc(C(=O)N5CCOCC5)ccc4[nH]3)c2N)c(C)c1` [Example I-20, [5-Amino-1-(4-methoxy-2-methyl-phenyl)-1H-pyrazol-4-yl]-[5-(morpholine-4-carbonyl)-1H-indol-2-yl]-methanone]: 150 nM.
In turn, `N#Cc1cc(Oc2cccc(F)c2F)ccc1-n1ncc(C(=O)c2cc3cc(C(=O)N4CCOCC4)ccc3[nH]2)c1N` [Example I-21, 2-{5-Amino-4-[5-(morpholine-4-carbonyl)-1H-indole-2-carbonyl]-pyrazol-1-yl}-5-(2,3-difluoro-phenoxy)-benzonitrile] had an IC50 greater than 100000 nM.
Under `Nc1c(C(=O)c2cc3cc(C(=O)N4CCOCC4)ccc3[nH]2)cnn1-c1ccc(Oc2cccc(F)c2F)cc1Br` [Example I-22, {5-Amino-1-[2-bromo-4-(2,3-difluoro-phenoxy)-phenyl]-1H-pyrazol-4-yl}-[5-(morpholine-4-carbonyl)-1H-indol-2-yl]-methanone] stands 1.3 nM.
